Structures can show the parent of a compound that is named as a salt.
Columns and labels:
Test in all cases: biochemical
ZmDRIK1-K217-P492 = biological target: T1, ZmDRIK1-K217-P492 (Zea mays, UniProt C0P4K9); settings: read-out: dTm B, sheet ZmDRIK1-K217-P492;; DSF, Boltzmann fit, 0.1% DMSO
T1 construct: kinase domain, K217-P492
T1 sequence (C0P4K9 1-514): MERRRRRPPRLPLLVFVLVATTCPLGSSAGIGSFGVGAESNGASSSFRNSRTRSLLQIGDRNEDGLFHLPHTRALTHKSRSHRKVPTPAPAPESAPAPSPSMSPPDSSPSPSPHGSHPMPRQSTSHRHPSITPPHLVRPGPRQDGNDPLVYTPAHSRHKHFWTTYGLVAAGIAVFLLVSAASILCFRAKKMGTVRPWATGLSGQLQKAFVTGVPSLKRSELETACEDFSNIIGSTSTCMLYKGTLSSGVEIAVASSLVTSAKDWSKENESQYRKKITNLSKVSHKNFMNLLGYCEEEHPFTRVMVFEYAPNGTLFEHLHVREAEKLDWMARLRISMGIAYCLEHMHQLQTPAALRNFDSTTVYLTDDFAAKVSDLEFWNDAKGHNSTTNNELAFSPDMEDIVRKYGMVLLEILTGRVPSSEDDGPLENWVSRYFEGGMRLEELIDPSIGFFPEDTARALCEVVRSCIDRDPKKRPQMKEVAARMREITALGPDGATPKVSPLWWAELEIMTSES

ZmDRIK1-K217-S514 = biological target: T2, ZmDRIK1-K217-S514 (Zea mays, UniProt C0P4K9); settings: read-out: dTm B, sheet ZmDRIK1-K217-S514;; DSF, Boltzmann fit, 0.1% DMSO
T2 construct: kinase domain, K217-S514
T2 sequence (C0P4K9 1-514): T1 sequence (C0P4K9 1-514)

ZmDRIK1-R187-P492 = biological target: T3, ZmDRIK1-R187-P492 (Zea mays, UniProt C0P4K9); settings: read-out: dTm B, DSF, Boltzmann fit, 0.1% DMSO
T3 construct: kinase domain, R187-P492
T3 sequence (C0P4K9 1-514): T1 sequence (C0P4K9 1-514)

[1] = biological target: T4, ZmDRIK1 (DROUGHT RESPONSIVE INACTIVE KINASE 1), kinase domain (Zea mays, UniProt C0P4K9); settings: DSF, Boltzmann fit, 0.1% DMSO; for ΔTm at 10 µM: read-out: dTm B, sheet ZmDRIK1-R187-S514;; for dTm B: sheet ZmDRIK1-R187-S514;, 10 µM, binder
T4 construct: gene ZEAMMB73_Zm00001d028770; ZmDRIK1-KD R187-S514 (kinase domain)
T4 sequence (C0P4K9 187-514): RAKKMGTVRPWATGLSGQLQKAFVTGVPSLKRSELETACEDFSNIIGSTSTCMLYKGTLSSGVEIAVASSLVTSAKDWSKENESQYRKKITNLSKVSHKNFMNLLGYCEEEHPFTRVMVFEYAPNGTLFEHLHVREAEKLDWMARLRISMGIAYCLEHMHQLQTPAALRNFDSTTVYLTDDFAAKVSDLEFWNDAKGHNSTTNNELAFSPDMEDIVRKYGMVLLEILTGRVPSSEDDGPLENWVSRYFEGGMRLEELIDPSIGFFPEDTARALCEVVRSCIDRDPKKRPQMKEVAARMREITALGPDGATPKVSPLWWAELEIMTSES

Structure (SMILES) | ΔTm at 10 µM (ZmDRIK1-K217-P492) [°C] | ΔTm at 10 µM (ZmDRIK1-K217-S514) [°C] | ΔTm at 10 µM (ZmDRIK1-R187-P492) [°C] | ΔTm at 10 µM [1] [°C] | dTm B [1] [degC]
COc1cc(N2CCC(N3CCN(C)CC3)CC2)ccc1Nc1ncc(Cl)c(Nc2ccccc2P(C)(C)=O)n1 [AP26113] | -0.987 | -0.362 | -0.259 |  | 
S=C(NCc1ccc2c(c1)OCO2)N1CCN(c2ncnc3c2oc2ccccc23)CC1 [Amuvatinib (MP-470)] | 9.06 | -3.2 | -10.8 |  | 
COc1cc2nccc(Oc3ccc(NC(=O)C4(C(=O)Nc5ccc(F)cc5)CC4)cc3)c2cc1OC [Cabozantinib malate (XL184)] |  |  |  | -14.9 | 
C[C@@H](Oc1cc(-c2cnn(C3CCNCC3)c2)cnc1N)c1c(Cl)ccc(F)c1Cl [Crizotinib (PF-02341066)] |  | -0.67 | -0.336 | -0.958 | 
CN1CCN(c2ccc3nc(-c4c(N)c5c(F)cccc5[nH]c4=O)[nH]c3c2)CC1 [Dovitinib (TKI-258) Dilactic Acid] |  |  |  |  | -0.2117
CN1CCN(c2ccc3nc(-c4c(N)c5c(F)cccc5[nH]c4=O)[nH]c3c2)CC1 [Dovitinib (TKI-258)] |  |  |  |  | -0.003273
CCc1cc(Nc2nccc(-c3c(-c4ccc(OC)c(C(=O)Nc5c(F)cccc5F)c4)nc4ccccn34)n2)c(OC)cc1N1CCC(N2CCN(S(C)(=O)=O)CC2)CC1 [GSK1904529A] | -0.895 | -0.386 |  | 0.265 | 
CCc1cncnc1N1CCN(Cc2nc3ccc(C(F)(F)F)cc3[nH]2)CC1 [PF-4708671] | -0.666 | -0.219 |  | -0.759 | 
Cc1ccccc1-n1c(Cn2ncc3c(N)ncnc32)nc2cccc(C)c2c1=O [PIK-293] | -1.04 |  | -0.695 | -1.14 | 
COc1cc(Nc2ncc(F)c(Nc3ccc4c(n3)NC(=O)C(C)(C)O4)n2)cc(OC)c1OC [R406 (free base)] |  |  |  |  | -0.8381
N#CC[C@H](C1CCCC1)n1cc(-c2ncnc3[nH]ccc23)cn1 [Ruxolitinib (INCB018424)] |  |  |  |  | -0.7708
N#CC[C@H](C1CCCC1)n1cc(-c2ncnc3[nH]ccc23)cn1 [S-Ruxolitinib (INCB018424)] |  |  |  |  | -0.5823
COc1c(C)c(C(=O)c2ccc(N)c(C(=O)O)c2)n2ccccc12 [SSR128129E] | -0.939 | -0.406 |  | -0.884 | 
NC(=O)Nc1sc(-c2ccc(F)cc2)cc1C(N)=O [TPCA-1] |  | 0.285 | 0.149 | -0.582 | 
CNC(=O)Nc1ccc(-c2nc(N3CC4CCC(C3)O4)c3cnn(C4CCC5(CC4)OCCO5)c3n2)cc1 [WYE-125132 (WYE-132)] | -0.91 | -0.412 |  | -0.649 | 

Other lines, results leading:

ΔTm at 10 µM (ZmDRIK1-K217-P492) [°C] | ΔTm at 10 µM (ZmDRIK1-K217-S514) [°C] | ΔTm at 10 µM (ZmDRIK1-R187-P492) [°C] | ΔTm at 10 µM [1] [°C] | dTm B [1] [degC] | Structure (SMILES)
-0.776 | -0.322 | -0.122 |  |  | Cc1ccc(NC(=O)c2cccc(C(C)(C)C#N)c2)cc1Nc1ccc2ncn(C)c(=O)c2c1 [AZ 628]
 |  |  | -0.74 |  | NS(=O)(=O)c1ccc(N/C=C2\C(=O)Nc3ccc4ncsc4c32)cc1 [GW297361X]
-1.12 | -0.402 |  | -1 |  | CN(C[C@@H]1COCCO1)S(=O)(=O)Nc1ccc2ccc3ncc(-c4cnn(C)c4)cc3c(=O)c2c1 [MK-2461]
 |  |  |  | -0.8176 | CN(c1ncccc1CNc1nc(Nc2ccc3c(c2)CC(=O)N3)ncc1C(F)(F)F)S(C)(=O)=O [PF-00562271]
 |  |  |  | -0.5293 | CN(c1ncccc1CNc1nc(Nc2ccc3c(c2)CC(=O)N3)ncc1C(F)(F)F)S(C)(=O)=O [PF-562271]
 |  |  |  | -0.83 | Cc1ccc(Nc2nccc(N(C)c3ccc4c(C)n(C)nc4c3)n2)cc1S(N)(=O)=O [Pazopanib HCl (GW786034 HCl)]
 |  |  |  | -0.7756 | Cc1ccc(Nc2nccc(N(C)c3ccc4c(C)n(C)nc4c3)n2)cc1S(N)(=O)=O [Pazopanib]
 |  |  |  | -1.004 | COc1cc(Nc2ncc(F)c(Nc3ccc4c(n3)NC(=O)C(C)(C)O4)n2)cc(OC)c1OC [R406]
 |  |  | -12 |  | CNC(=O)c1cc(Oc2ccc(NC(=O)Nc3ccc(Cl)c(C(F)(F)F)c3)cc2)ccn1 [Sorafenib Tosylate]

From PMC7158045 (BMC Plant Biology, 2020)
